Source: ChEMBL document CHEMBL1201862, “PubChem BioAssay data set” (2004)
Where “and” joins values, the source holds several entries; their conditions need not be identical. Equal entries are not always repeated.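 Five compound concentrations were applied to cells in 96-well plates for 48 hours; endpoints were derived by simple linear interpolation of the resulting dose-response curve. Abbreviation: GI50, concentration required for 50% inhibition of growth.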 Calls of active or inactive are those of the source. Rule as the data show it: active = GI50 up to about 1.1 µM and inactive = higher.

Tests used:
Assay in all cases: inhibition of tumour cell growth, NCI panel, 48 h
MCF7 = system: MCF7
UACC-62 = system: UACC-62
OVCAR-5 = system: OVCAR-5
ACHN = system: ACHN
SK-OV-3 = system: SK-OV-3
OVCAR-8 = system: OVCAR-8
Hs-578T = system: Hs-578T
HOP-92 = system: HOP-92
HCC 2998 = system: HCC 2998
PC-3 = system: PC-3
MDA-MB-231 = system: MDA-MB-231
RXF 393 = system: RXF 393
SN12C = system: SN12C
SR = system: SR
KM12 = system: KM12
NCI/ADR-RES = system: NCI/ADR-RES
CCRF-CEM = system: CCRF-CEM
SK-MEL-28 = system: SK-MEL-28
M14 = system: M14
MDA-MB-435 = system: MDA-MB-435

SMILES	GI50 (MCF7)	GI50 (UACC-62)	GI50 (OVCAR-5)	GI50 (ACHN)	GI50 (SK-OV-3)	GI50 (OVCAR-8)	GI50 (Hs-578T)	GI50 (HOP-92)	GI50 (HCC 2998)	GI50 (PC-3)	GI50 (MDA-MB-231)	GI50 (RXF 393)	GI50 (SN12C)	GI50 (SR)	GI50 (KM12)	GI50 (NCI/ADR-RES)	GI50 (CCRF-CEM)	GI50 (SK-MEL-28)	GI50 (M14)	GI50 (MDA-MB-435)
c1csc(C(NC2=NCCO2)C2CC2)c1 (stereo unspecified)	> 100 µM (inactive)	> 100 µM (inactive)	> 100 µM (inactive)	> 100 µM (inactive)	> 100 µM (inactive)	> 100 µM (inactive)	> 100 µM (inactive)	93.5 µM (inactive)	> 100 µM (inactive)	> 100 µM (inactive)	> 100 µM (inactive)	> 100 µM (inactive)	> 100 µM (inactive)	> 100 µM (inactive)	–	–	–	–	–	–
CC(=O)c1c(-c2cccc3ccccc23)c(C#N)c(=S)n(C2OC(CO)C(O)C(O)C2O)c1C (stereo unspecified)	> 100 µM (inactive)	64.7 µM (inactive)	> 100 µM (inactive)	> 100 µM (inactive)	> 100 µM (inactive)	> 100 µM (inactive)	> 100 µM (inactive)	56.8 µM (inactive)	> 100 µM (inactive)	> 100 µM (inactive)	–	83.6 µM (inactive)	81.3 µM (inactive)	–	79.1 µM (inactive)	62.2 µM (inactive)	56 µM (inactive) and 51.4 µM (inactive)	> 100 µM (inactive)	–	–
CCOc1cc(NC(C)=O)ccc1C(=O)NN1C(=O)/C(=C/c2cc(OC)c(OC)c(OC)c2)N=C1c1ccccc1	> 100 µM (inactive)	> 100 µM (inactive)	> 100 µM (inactive)	> 100 µM (inactive)	> 100 µM (inactive)	63.5 µM (inactive)	> 100 µM (inactive)	23 µM (inactive)	> 100 µM (inactive)	–	–	–	> 100 µM (inactive)	> 100 µM (inactive)	37.2 µM (inactive)	> 100 µM (inactive)	> 100 µM (inactive)	> 100 µM (inactive)	64.9 µM (inactive)	> 100 µM (inactive)
COC(=O)c1nc(N)nc(C(=O)OC)c1C(=O)c1ccccc1	–	> 100 µM (inactive)	> 100 µM (inactive)	> 100 µM (inactive)	> 100 µM (inactive)	> 100 µM (inactive)	–	96.8 µM (inactive)	> 100 µM (inactive)	–	–	> 100 µM (inactive)	> 100 µM (inactive)	> 100 µM (inactive)	> 100 µM (inactive)	–	> 100 µM (inactive)	> 100 µM (inactive)	> 100 µM (inactive)	–
Cc1ccc(NC=O)c(-c2c(N)[nH]c(=S)[nH]c2=O)c1	> 100 µM (inactive)	> 100 µM (inactive)	> 100 µM (inactive)	60.7 µM (inactive)	12.3 µM (inactive)	> 100 µM (inactive)	> 100 µM (inactive)	> 100 µM (inactive)	–	–	> 100 µM (inactive)	> 100 µM (inactive)	> 100 µM (inactive)	> 100 µM (inactive)	> 100 µM (inactive)	> 100 µM (inactive)	> 100 µM (inactive)	–	> 100 µM (inactive)	94 µM (inactive)
N[C@@H]1C[C@H](N)c2c(Cl)sc(Cl)c21	> 100 µM (inactive)	> 100 µM (inactive)	> 100 µM (inactive)	> 100 µM (inactive)	–	> 100 µM (inactive)	–	> 100 µM (inactive)	> 100 µM (inactive)	> 100 µM (inactive)	> 100 µM (inactive)	> 100 µM (inactive)	> 100 µM (inactive)	> 100 µM (inactive)	> 100 µM (inactive)	> 100 µM (inactive)	> 100 µM (inactive)	> 100 µM (inactive)	> 100 µM (inactive)	> 100 µM (inactive)
COc1cccc(/C=N/NC(=O)CN(C)C)c1O	> 100 µM (inactive)	> 100 µM (inactive)	> 100 µM (inactive)	> 100 µM (inactive)	> 100 µM (inactive)	> 100 µM (inactive)	> 100 µM (inactive)	> 100 µM (inactive)	> 100 µM (inactive)	> 100 µM (inactive)	–	> 100 µM (inactive)	> 100 µM (inactive)	–	> 100 µM (inactive)	> 100 µM (inactive)	> 100 µM (inactive)	> 100 µM (inactive)	> 100 µM (inactive)	> 100 µM (inactive)
COC(=O)CC1CN(C(=O)OCc2ccccc2)C(C)(C)O1 (stereo unspecified)	> 100 µM (inactive)	> 100 µM (inactive)	> 100 µM (inactive)	> 100 µM (inactive)	> 100 µM (inactive)	> 100 µM (inactive)	–	94.6 µM (inactive)	> 100 µM (inactive)	62.7 µM (inactive)	> 100 µM (inactive)	> 100 µM (inactive)	> 100 µM (inactive)	> 100 µM (inactive)	43.3 µM (inactive)	> 100 µM (inactive)	> 100 µM (inactive)	9.06 µM (inactive)	> 100 µM (inactive)	> 100 µM (inactive)
CN(C)CCNc1c2ccccc2c2c3c(cccc13)C(=O)N(CCN(C)C)C2=O	0.0416 µM (active)	0.308 µM (active)	0.224 µM (active)	–	0.221 µM (active)	0.129 µM (active)	–	0.138 µM (active)	0.152 µM (active)	–	–	0.0232 µM (active)	0.0883 µM (active)	–	0.232 µM (active)	0.0627 µM (active)	0.111 µM (active)	0.0735 µM (active)	–	–
CC1NC(=O)CC(c2ccccc2)N(N=O)C1c1ccccc1 (stereo unspecified)	44.3 µM (inactive)	35.4 µM (inactive)	> 100 µM (inactive)	–	22.8 µM (inactive)	34 µM (inactive)	–	16.9 µM (inactive)	35.4 µM (inactive)	–	–	22.4 µM (inactive)	49.5 µM (inactive)	–	56.1 µM (inactive)	25.2 µM (inactive)	23.8 µM (inactive)	40.8 µM (inactive)	–	–
COc1ccc(C2SCC(=O)N2NC(=O)c2ccc(NC(C)=O)cc2)c(OC)c1 (stereo unspecified)	> 100 µM (inactive)	> 100 µM (inactive)	> 100 µM (inactive)	> 100 µM (inactive)	> 100 µM (inactive)	> 100 µM (inactive)	> 100 µM (inactive)	> 100 µM (inactive)	> 100 µM (inactive)	–	> 100 µM (inactive)	> 100 µM (inactive)	> 100 µM (inactive)	–	> 100 µM (inactive)	> 100 µM (inactive)	–	> 100 µM (inactive)	69.8 µM (inactive)	> 100 µM (inactive)
COc1ccc(/C=N/n2cnc3c(c2=O)S/C(=C2/SC(=S)N(c4ccc(C)cc4)C2=O)N3c2ccccc2)cc1	–	17.4 µM (inactive)	> 100 µM (inactive)	49.1 µM (inactive)	> 100 µM (inactive)	70.5 µM (inactive)	–	25.8 µM (inactive)	> 100 µM (inactive)	–	–	17.3 µM (inactive)	> 100 µM (inactive)	31.6 µM (inactive)	> 100 µM (inactive)	–	43.6 µM (inactive)	> 100 µM (inactive)	19.5 µM (inactive)	–
CC(C)C[P+](c1ccccc1)(c1ccccc1)c1ccccc1	3.31 µM (inactive)	3.85 µM (inactive)	73.6 µM (inactive)	20.2 µM (inactive)	19.8 µM (inactive)	–	11.2 µM (inactive)	3.32 µM (inactive)	8.57 µM (inactive)	–	31.8 µM (inactive)	–	12.3 µM (inactive)	–	1.79 µM (inactive)	> 100 µM (inactive)	0.419 µM (active)	22.6 µM (inactive)	8.41 µM (inactive)	2.87 µM (inactive)
Cc1noc(/N=C2\C=C(Nc3onc(C)c3C)C(=O)c3ccccc32)c1C	–	27.7 µM (inactive)	> 100 µM (inactive)	> 100 µM (inactive)	> 100 µM (inactive)	16 µM (inactive)	–	> 100 µM (inactive)	> 100 µM (inactive)	–	–	> 100 µM (inactive)	> 100 µM (inactive)	24.3 µM (inactive)	> 100 µM (inactive)	–	> 100 µM (inactive)	> 100 µM (inactive)	> 100 µM (inactive)	–
CC(=O)OCC1OC(n2cc([N+](=O)[O-])c(=O)[nH]c2=O)C(OC(C)=O)C(OC(C)=O)C1OC(C)=O (stereo unspecified)	–	> 100 µM (inactive)	> 100 µM (inactive)	> 100 µM (inactive)	> 100 µM (inactive)	> 100 µM (inactive)	–	> 100 µM (inactive)	> 100 µM (inactive)	–	–	76 µM (inactive)	> 100 µM (inactive)	> 100 µM (inactive)	> 100 µM (inactive)	–	> 100 µM (inactive)	> 100 µM (inactive)	> 100 µM (inactive)	–
CCOC(=O)Cc1csc2[n+]1C(=O)/C(=C/c1cccc(OC)c1O)S2	45.3 µM (inactive)	97.7 µM (inactive)	> 100 µM (inactive)	69.5 µM (inactive)	> 100 µM (inactive)	52.6 µM (inactive)	–	93.8 µM (inactive)	32.2 µM (inactive)	40.8 µM (inactive)	51.5 µM (inactive)	–	81.5 µM (inactive)	–	38.1 µM (inactive)	47 µM (inactive)	–	84.9 µM (inactive)	77.6 µM (inactive)	11.9 µM (inactive)
Oc1ccc(-c2nc3ccc(Br)cc3s2)cc1	4.85 µM (inactive)	13 µM (inactive)	24 µM (inactive)	22.2 µM (inactive)	19.5 µM (inactive)	20.4 µM (inactive)	–	–	–	19.2 µM (inactive)	16.3 µM (inactive)	31.3 µM (inactive)	18.2 µM (inactive)	10.3 µM (inactive)	14.7 µM (inactive)	18.1 µM (inactive)	3.74 µM (inactive)	–	18.9 µM (inactive)	21.1 µM (inactive)
